Assay results reported in ChEMBL document CHEMBL4400538, “Discovery of Carboline Derivatives as Potent Antifungal Agents for the Treatment of Cryptococcal Meningitis” (J Med Chem, 2019).
Active and inactive are the calls of the source. The rule behind the calls is not given here.

Experiments:
Cryptococcus neoformans [1] = experiment: Induction of cell cycle arrest in Cryptococcus neoformans H99 assessed as accumulation at S phase at 1 to 2 ug/ml after 24 hrs by propidium iodide-staining based FACS analysis (reference value: 51.64%); type: functional, var grubii H99
Cryptococcus neoformans [2] = experiment: Induction of up-regulation of ORC gene expression in Cryptococcus neoformans H99 at 2 ug/ml after 24 hrs by RNA-seq analysis based KEGG pathway enrichment analysis; type: functional, organism-based; settings: var grubii H99
Cryptococcus neoformans [3] = experiment: Induction of up-regulation of MCM gene expression in Cryptococcus neoformans H99 at 2 ug/ml after 24 hrs by RNA-seq analysis based KEGG pathway enrichment analysis; type: functional, organism-based; settings: var grubii H99
Cryptococcus neoformans [4] = experiment: Induction of up-regulation of Mob1 gene expression in Cryptococcus neoformans H99 at 2 ug/ml after 24 hrs by RNA-seq analysis based KEGG pathway enrichment analysis; type: functional, organism-based; settings: var grubii H99
Cryptococcus neoformans [5] = experiment: Antifungal activity against Cryptococcus neoformans H99 assessed as cell wall collapse at 4 ug/ml after 24 hrs by TEM analysis; type: functional, organism-based; settings: var grubii H99
Cryptococcus neoformans [6] = experiment: Antifungal activity against Cryptococcus neoformans H99 after 48 hrs by growth curve assay; type: functional
Candida albicans [7] = experiment: Antifungal activity against Candida albicans 7781 after 48 hrs by spectrophotometery; type: functional; settings: Candida albicans, 7781, 48 h
Cryptococcus neoformans [8] = experiment: Induction of cell cycle arrest in Cryptococcus neoformans H99 assessed as accumulation at G2 phase at 1 to 2 ug/ml after 24 hrs by propidium iodide-staining based FACS analysis (reference value: 3.86%); type: functional, var grubii H99
[9] = Solubility of the compound; type: physicochemical
Candida albicans [10] = experiment: Antifungal activity against Candida albicans 0304103 after 48 hrs by spectrophotometery; type: functional; settings: Candida albicans, 0304103, 48 h
Cryptococcus neoformans [11] = experiment: Antifungal activity against Cryptococcus neoformans H99 infected in ICR mouse assessed as reduction in brain fungal load at 20 mg/kg, po administered daily for 5 days; type: functional, organism-based; settings: var grubii H99
Trichophyton rubrum = experiment: Antifungal activity against Trichophyton rubrum TIA after 48 hrs by spectrophotometery; type: functional
Cryptococcus neoformans [12] = experiment: Antifungal activity against Cryptococcus neoformans H99 assessed as inhibition of microbial growth at 8 ug/ml after 12 to 48 hrs by growth curve assay; type: functional; settings: var grubii H99, read-out: GI
Cryptococcus neoformans [13] = experiment: Antifungal activity against Cryptococcus neoformans H99 assessed as up-regulation of Cdc25C expression after 24 hrs by Western blot analysis; type: functional, organism-based; settings: var grubii H99
Cryptococcus neoformans [14] = experiment: Antifungal activity against Cryptococcus neoformans H99 infected in ICR mouse assessed as reduction in brain fungal load at 10 mg/kg, ip administered once daily; type: functional, organism-based; settings: var grubii H99
Nakaseomyces glabratus = experiment: Antifungal activity against Candida glabrata 8535 after 48 hrs by spectrophotometery; type: functional; settings: Nakaseomyces glabratus, 8535, 48 h
Cryptococcus neoformans [15] = experiment: Induction of up-regulation of PLK1 gene expression in Cryptococcus neoformans H99 at 2 ug/ml after 24 hrs by RNA-seq analysis based KEGG pathway enrichment analysis; type: functional, organism-based; settings: var grubii H99
Cryptococcus neoformans [16] = experiment: Induction of up-regulation of Mps1 gene expression in Cryptococcus neoformans H99 at 2 ug/ml after 24 hrs by RNA-seq analysis based KEGG pathway enrichment analysis; type: functional, organism-based; settings: var grubii H99
Cryptococcus neoformans [17] = experiment: Induction of up-regulation of DNA polymerase alpha2 gene expression in Cryptococcus neoformans H99 at 2 ug/ml after 24 hrs by RNA-seq analysis based KEGG pathway enrichment analysis; type: functional, organism-based; settings: var grubii H99
Cryptococcus neoformans [18] = experiment: Induction of up-regulation of Lig1 gene expression in Cryptococcus neoformans H99 at 2 ug/ml after 24 hrs by RNA-seq analysis based KEGG pathway enrichment analysis; type: functional, organism-based; settings: var grubii H99
Cryptococcus neoformans [19] = experiment: Antifungal activity against Cryptococcus neoformans ATCC 34877 after 72 hrs by spectrophotometery; type: functional; settings: ATCC 34877, 72 h
Cryptococcus neoformans [20] = experiment: Antifungal activity against Cryptococcus neoformans H99 assessed as formation of abnormally shaped cells at 4 ug/ml after 24 hrs by TEM analysis; type: functional, organism-based; settings: var grubii H99
Cryptococcus neoformans [21] = experiment: Antifungal activity against Cryptococcus neoformans H99 after 72 hrs by growth curve assay; type: functional; settings: var grubii H99 
Cryptococcus gattii = experiment: Antifungal activity against Cryptococcus gattii ATCC 14116 after 72 hrs by spectrophotometery; settings: ATCC 14116, 72 h
Cryptococcus neoformans [22] = experiment: Induction of up-regulation of Hs17 gene expression in Cryptococcus neoformans H99 at 2 ug/ml after 24 hrs by RNA-seq analysis based KEGG pathway enrichment analysis; type: functional, organism-based; settings: var grubii H99
Cryptococcus neoformans [23] = experiment: Induction of up-regulation of Ycg1 gene expression in Cryptococcus neoformans H99 at 2 ug/ml after 24 hrs by RNA-seq analysis based KEGG pathway enrichment analysis; type: functional, organism-based; settings: var grubii H99
Nannizzia gypsea = experiment: Antifungal activity against Microsporum gypseum MZC after 48 hrs by spectrophotometery; type: functional
Cryptococcus neoformans [24] = experiment: Induction of up-regulation of PNAC gene expression in Cryptococcus neoformans H99 at 2 ug/ml after 24 hrs by RNA-seq analysis based KEGG pathway enrichment analysis; type: functional, organism-based; settings: var grubii H99
[25] = Clearance in ICR mouse liver microsomes at 1 uM measured up to 45 mins in presence of NADPH by LC-MS/MS analysis; type: ADME, Microsome; settings: 0.75 h
HUVEC = experiment: Cytotoxicity against human HUVEC; type: cell-based
[26] = Half life in ICR mouse liver microsomes at 1 uM measured up to 45 mins in presence of NADPH by LC-MS/MS analysis; type: ADME, Microsome
Cryptococcus neoformans [27] = experiment: Antibiofilm activity against Cryptococcus neoformans H99 at 16 ug/ml after 90 mins by XTT assay; type: functional, organism-based; settings: var grubii H99
Cryptococcus neoformans [28] = experiment: Antifungal activity against Cryptococcus neoformans H99 assessed as up-regulation of CDK1 expression after 24 hrs by Western blot analysis; type: functional, organism-based; settings: var grubii H99
Cryptococcus neoformans [29] = experiment: Antibiofilm activity against Cryptococcus neoformans H99 assessed as inhibition of cellular surface hydrophobicity at 5 ug/ml incubated for 24 hrs by water-hydrocarbon two-phase assay; type: functional, organism-based; settings: var grubii H99
Cryptococcus neoformans [30] = experiment: Induction of cell cycle arrest in Cryptococcus neoformans H99 assessed as accumulation at G1 phase at 1 to 2 ug/ml after 24 hrs by propidium iodide-staining based FACS analysis (reference value: 44.50%); type: functional, var grubii H99
Cryptococcus neoformans [31] = experiment: Induction of up-regulation of APC/C gene expression in Cryptococcus neoformans H99 at 2 ug/ml after 24 hrs by RNA-seq analysis based KEGG pathway enrichment analysis; type: functional, organism-based; settings: var grubii H99
[32] = Effective permeability of the compound after 12 hrs by PAMPA; type: ADME; settings: read-out: Peff
Aspergillus fumigatus = experiment: Antifungal activity against Aspergillus fumigatus 7544 after 48 hrs by spectrophotometery; type: functional; settings: Aspergillus fumigatus, 7544, 48 h
Cryptococcus neoformans [33] = experiment: Antifungal activity against Cryptococcus neoformans H99 assessed as nuclear pyknosis at 4 ug/ml after 24 hrs by TEM analysis; type: functional, organism-based; settings: var grubii H99
Cryptococcus neoformans [34] = experiment: Antifungal activity against Cryptococcus neoformans H99 assessed as induction of gamma-H2AX foci at 2 ug/ml after 48 hrs by Hoechst-33342 staining based fluorescence microscopy; type: functional, organism-based; settings: var grubii H99
Cryptococcus neoformans [35] = experiment: Antifungal activity against Cryptococcus neoformans H99 assessed as up-regulation of cyclin B1 expression after 24 hrs by Western blot analysis; type: functional, organism-based; settings: var grubii H99
Cryptococcus neoformans [36] = experiment: Induction of up-regulation of PCNA gene expression in Cryptococcus neoformans H99 at 2 ug/ml after 24 hrs by RNA-seq analysis based KEGG pathway enrichment analysis; type: functional, organism-based; settings: var grubii H99
Cryptococcus neoformans [37] = experiment: Inhibition of urease production in Cryptococcus neoformans H99 at 10 ug/ml; type: functional, organism-based; settings: var grubii H99
[38] = Protein binding in mouse plasma; type: ADME, cell-free
Cryptococcus neoformans [39] = experiment: Inhibition of melanin production in Cryptococcus neoformans H99 at 2.5 ug/ml; type: functional, organism-based; settings: var grubii H99
Candida parapsilosis = experiment: Antifungal activity against Candida parapsilosis 5008 after 48 hrs by spectrophotometery; type: functional; settings: Lodderomyces parapsilosis, 5008, 48 h

MIC80 (Cryptococcus neoformans [6]; var grubii H99 ): 0.25 µg/mL | MIC80 (Candida albicans [7]): 4 µg/mL | solubility [9]: 54.6 µg/mL | MIC80 (Candida albicans [10]): 2 µg/mL | MIC80 (Trichophyton rubrum): 4 µg/mL | MIC80 (Nakaseomyces glabratus): 1 µg/mL | Activity (Cryptococcus neoformans [17]): Active | MIC80 (Cryptococcus neoformans [19]): 0.5 µg/mL | MIC80 (Cryptococcus neoformans [21]): 0.5 µg/mL | MIC80 (Cryptococcus gattii): 1 µg/mL | MIC80 (Nannizzia gypsea): 8 µg/mL | scaled CLint [25]: 78 mL/min/kg | half-life at 1 µM [26]: 1.17 h | Papp at 12 h [32]: 1.8 ×10⁻⁶ cm/s | MIC80 (Aspergillus fumigatus): 16 µg/mL | PPB [38]: Active | MIC80 (Candida parapsilosis): 2 µg/mL
SMILES: Clc1ccc(OCCCn2c3c(c4cc(Cl)ccc42)CCNC3)cc1.O=C(O)C(F)(F)F
Activity (Cryptococcus neoformans [1]): 53.21% | Activity (Cryptococcus neoformans [2]): Active | Activity (Cryptococcus neoformans [3]): Active | Activity (Cryptococcus neoformans [4]): Active | Activity (Cryptococcus neoformans [5]): Active | Activity (Cryptococcus neoformans [6]; var grubii H99): Dose-dependent effect | Activity (Cryptococcus neoformans [8]): 10.34% | Activity (Cryptococcus neoformans [11]): Active | inhibition of growth at 8 µg/mL (Cryptococcus neoformans [12]): 100% | Activity (Cryptococcus neoformans [13]): Dose-dependent effect | Activity (Cryptococcus neoformans [14]): Active | Activity (Cryptococcus neoformans [15]): Active | Activity (Cryptococcus neoformans [16]): Active | Activity (Cryptococcus neoformans [18]): Active | Activity (Cryptococcus neoformans [20]): Active | Activity (Cryptococcus neoformans [22]): Active | Activity (Cryptococcus neoformans [23]): Active | Activity (Cryptococcus neoformans [24]): Active | Activity (HUVEC): Non-Toxic | Activity (Cryptococcus neoformans [27]): Active | Activity (Cryptococcus neoformans [28]): Dose-dependent effect | Activity (Cryptococcus neoformans [29]): Active | Activity (Cryptococcus neoformans [30]): 36.45% | Activity (Cryptococcus neoformans [31]): Active | Activity (Cryptococcus neoformans [33]): Active | Activity (Cryptococcus neoformans [34]): Active | Activity (Cryptococcus neoformans [35]): Dose-dependent effect | Activity (Cryptococcus neoformans [36]): Active | inhibition (Cryptococcus neoformans [37]): inactive | inhibition (Cryptococcus neoformans [39]): Active
